# Values of other authors as cited in paper PMC12308805, “Ultrahigh-Throughput Virtual Screening Strategies against PPI Targets: A Case Study of STAT Inhibitors” (Journal of Chemical Information and Modeling, 2025).
# Square brackets hold non-standard residues; d marks the D form. Peptide text beside a SMILES is read from it. * marks the point of attachment. d(pY) = N[C@H](Cc1ccc(OP(=O)(O)O)cc1)C(=O)O; pY = N[C@@H](Cc1ccc(OP(=O)(O)O)cc1)C(=O)O; NH(1S-phenylethyl) = C[C@H](N*)c1ccccc1; Isobutyryl = CC(C)C(=O)*
# Tested on: STAT3
# Conditions: cited from earlier work
row,SMILES,Type (known STAT3 active)
1,CC(C)C[C@H](NC(=O)/C=C/c1ccc(OP(=O)(O)O)cc1)C(=O)N1CCC[C@H]1C(=O)NCCCC(N)=O [CHEMBL573048],Active

# Same assay, conditions: sheet 6QHD_actives_decoys, retrospective screening set for STAT3 SH2 domain (PDB 6QHD); decoys are presumed inactives, not tested; ref DUD-E; cited from earlier work
row,SMILES,Type
1,CCCCN(C(=O)c1cccc(S(=O)(=O)N2CCN(C)CC2)c1)c1c(N)n(CCCC)c(=O)[nH]c1=O [Decoy864],Inactive (Decoy)
2,CCOC(=O)c1c(C)[nH]c(C(=O)OCC(=O)NCC(=O)Nc2ccc(F)c(F)c2F)c1C [Decoy761],Inactive (Decoy)
3,CCOc1ccc(-n2c(SCC(=O)N/N=C/c3ccc(OC)c(OC)c3OC)nnc2-c2ccccc2)cc1 [Decoy778],Inactive (Decoy)
4,C[C@H](O)C[C@H](O)[C@@H](SC[C@@H](O)C(=O)O)[C@@H](O)/C=C/Cc1cc2c(Cl)c(O)cc(O)c2c(=O)o1 [Decoy782],Inactive (Decoy)
5,CCc1ccc2c(c1)[C@@]1(N[C@@H](Cc3ccc(O)c(O)c3)[C@H]3C(=O)N(CCc4ccc(OC)c(OC)c4)C(=O)[C@H]31)C(=O)N2 [Decoy902],Inactive (Decoy)
6,CO[C@@H]1[C@@H](OC(N)=O)[C@H](O)[C@@H](Oc2ccc3c(O)c(NC(=O)c4ccc(O)c(CC=C(C)C)c4)c(=O)oc3c2C)OC1(C)C [Decoy883],Inactive (Decoy)
7,CCN(CC)c1ccc(/C=N/Nc2nc(SCC(=O)n3nc(C)cc3C)n[nH]2)c(O)c1 [Decoy937],Inactive (Decoy)
8,CCOC(=O)c1sc(NC(=O)CSc2nnc(CNC(=O)c3ccccc3OC)n2C)c(C(=O)OCC)c1C [Decoy843],Inactive (Decoy)
9,CCOC(=O)c1[nH]c(C)c(C(=O)OCC(=O)NCC(=O)Nc2ccc(F)c(F)c2F)c1C [Decoy747],Inactive (Decoy)
10,CSCC[C@@H](NC(=O)[C@H](N)Cc1ccc(O)cc1)C(=O)N[C@H](Cc1ccccc1)C(=O)N[C@H](Cc1c[nH]cn1)C(=O)N[C@@H](CC(C)C)C(=O)N[C@H](CCSC)C(=O)N[C@@H](CC(=O)O)C(N)=O [Decoy814] (H-[dY][dM][dF][dH]L[dM]D-NH2),Inactive (Decoy)
11,CC[C@@H](C)[C@H](O)C(=O)O[C@H](C(=O)O[C@H](C(=O)OC[C@@H](O)[C@@H](O)[C@@H](O)[C@@H](O)CO)[C@@H](C)CC)[C@@H](C)CC [Decoy862],Inactive (Decoy)
12,C[n+]1c(N[N-]S(=O)(=O)c2cccc(C(=O)NC(C)(C)CC(C)(C)CC(C)(C)C)c2)sc2ccc(S(=O)(=O)C(F)F)cc21 [Decoy889],Inactive (Decoy)
13,CCN(CC)Cc1nnn(-c2nonc2N)c1C(=O)N/N=C(\C)c1ccc(OCc2ccc(Cl)cc2Cl)cc1 [Decoy952],Inactive (Decoy)
14,CC(=O)O[C@H]1[C@@H](O)[C@H](CO)O[C@H](O[C@@H](C/N=C/c2c(O)cc(O)c3ccccc23)[C@@H](CO)O[C@H](O)C/N=C/c2c(O)cc(O)c3ccccc23)[C@@H]1O [Decoy742],Inactive (Decoy)
15,O=C1N=C([C@]2(C3=Nc4nnc(/N=C(\O)Nc5ccc(Cl)cc5)n4C3=O)Cc3ccccc3C2=O)n2c(/N=C(\O)Nc3ccc(Cl)cc3)nnc21 [Decoy896],Inactive (Decoy)
16,CCOC(=O)c1[nH]c(C)c(C(=O)C2=C(O)C(=O)N(CCCn3ccnc3)[C@H]2c2cc(OC)c(OC)c(OC)c2)c1C [Decoy756],Inactive (Decoy)
17,CC(C)CN(C(=O)CN(C)C(=O)Cc1ccccc1Cl)c1c(N)n(CC(C)C)c(=O)[nH]c1=O [Decoy755],Inactive (Decoy)
18,CC[C@H](C)[C@H](O)C(=O)O[C@H](C(=O)O[C@H](C(=O)OC[C@H](O)[C@H](O)[C@H](O)[C@H](O)CO)[C@@H](C)CC)[C@@H](C)CC [Decoy861],Inactive (Decoy)
19,CNC(=O)[C@H](CC(C)C)NC(=O)[C@H](Cc1c[nH]cn1)NC(=O)[C@@H](C)NC(=O)[C@@H](NC(=O)[C@H](C)NC(=O)[C@H](Cc1c[nH]c2ccccc12)NC(=O)[C@H](Cc1c[nH]cn1)NC(=O)C(C)C)C(C)C [Decoy804] (Isobutyryl-HWAV[dA]HL-NHMe),Inactive (Decoy)
20,COc1cc(-c2ccc(NC(=O)c3ccc(OC)c(OC)c3)c(OC)c2)ccc1NC(=O)c1ccc(OC)c(OC)c1 [Decoy903],Inactive (Decoy)
21,COc1cc(/C(C)=N/NC(=O)c2nnn(-c3nonc3N)c2COc2ccc(F)cc2)ccc1OCc1ccc(Cl)cc1 [Decoy887],Inactive (Decoy)

# Same assay, conditions: sheet 6QHD_actives_decoys; known STAT3 actives of the retrospective screening set; ref ChEMBL / literature; cited from earlier work
row,SMILES,Type (known STAT3 active)
1,CC(=O)N[C@@H](Cc1ccc(OP(=O)(O)O)cc1)C(=O)N[C@@H](CC(C)C)C(=O)N1CCC[C@H]1C(=O)N[C@@H](CCC(N)=O)C(=O)N[C@@H](C)c1ccccc1 [CHEMBL370208] (Ac-[pY]LPQ-{NH(1S-phenylethyl)}),Active
2,CC(=O)N[C@@H](Cc1ccc(OP(=O)(O)O)cc1)C(=O)N[C@@H](CC(C)C)C(=O)N1CCC[C@H]1C(=O)N[C@@H](CCC(N)=O)C(=O)O [CHEMBL382544] (Ac-[pY]LPQ-OH),Active
3,NC(=O)CC[C@H](NC(=O)[C@@H]1Cc2cccc3c2N1C(=O)[C@@H](NC(=O)/C=C/c1ccc(OP(=O)(O)O)cc1)CC3)C(=O)O [CHEMBL510008],Active
4,CC(C)C[C@H](NC(=O)/C=C/c1ccc(OP(=O)(O)O)cc1)C(=O)N1CCC[C@H]1C(=O)N[C@@H](COC(N)=O)C(=O)NCc1ccccc1 [CHEMBL414034],Active
5,CSCC[C@H](NC(=O)[C@H](C)NC(=O)[C@H](CCC(N)=O)NC(=O)[C@@H]1CCCN1C(=O)[C@@H](CCCN=C(N)N)NC(=O)[C@@H](Cc1ccc(OP(=O)(O)O)cc1)NC(C)=O)C(N)=O [CHEMBL345419] (Ac-[d(pY)][dR]PQAM-NH2),Active

# Same assay, conditions: sheet 6QHD_actives_decoys; retrospective screening set for STAT3 SH2 domain (PDB 6QHD); […]; ref DUD-E; cited from earlier work
row,SMILES,Type
1,Cc1ccnc(NS(=O)(=O)c2ccc(NC(=O)c3cc([N+](=O)[O-])c(Cl)c([N+](=O)[O-])c3)cc2)n1 [Decoy530],Inactive (Decoy)

# Same assay, conditions: sheet 6QHD_actives_decoys; retrospective screening set for STAT3 SH2 domain (PDB 6QHD); decoys generated with DUD-E and presumed inactive, not tested; ref DUD-E; cited from earlier work
row,SMILES,Type
1,COC(=O)[C@@H]1O[C@H](OC/C(=N/NC(N)=O)[C@@]2(O)CC[C@@H]3[C@@H]4CC[C@@H]5C[C@H](OC(C)=O)CC[C@]5(C)[C@H]4C(=O)C[C@]32C)[C@@H](OC(C)=O)[C@H](OC(C)=O)[C@H]1OC(C)=O [Decoy339],Inactive (Decoy)
2,COc1cc(/C=N/NC(=O)CCCCC(=O)N/N=C/c2cc(Br)c(O)c(OC)c2)cc(Br)c1O [Decoy433],Inactive (Decoy)
3,COc1ccccc1OCCNC[C@@H](O)CN(CCOc1ccccc1OC)C[C@H](O)COc1cccc2[nH]c3ccccc3c12 [Decoy707],Inactive (Decoy)
4,COC(=O)c1ccc(S(=O)(=O)N(CCCO)Cc2cc3cc4c(cc3[nH]c2=O)OCCO4)cc1 [Decoy669],Inactive (Decoy)
5,COc1cc(NS(=O)(=O)c2ccc(NC(=O)c3cccc(COc4cccc(Cl)c4)c3)cc2)nc(OC)n1 [Decoy485],Inactive (Decoy)
6,C/C=C1/[C@H](O[C@@H]2O[C@H](CO)[C@@H](O)[C@H](O)[C@H]2O)OC=C(C(=O)OC)[C@H]1CC(=O)OCCc1ccc(O)c(O)c1 [Decoy367],Inactive (Decoy)
7,O=C(CSc1n[nH]c(N/N=C/c2cc(Cl)ccc2O)n1)NNC(=O)c1ccc(Cl)cc1 [Decoy591],Inactive (Decoy)
8,COc1cc([C@H]2C(C(=O)c3nc4c(C)cccn4c3C)=C(O)C(=O)N2CCCN2CCOCC2)ccc1O [Decoy674],Inactive (Decoy)
9,CCOc1cc(/C=N/NC(=O)c2nnn(-c3nonc3N)c2CSC2=NCCS2)cc(Br)c1OCc1cccc(C)c1 [Decoy594],Inactive (Decoy)
10,O=C(O)c1ccccc1NS(=O)(=O)c1ccc(NCCCN2CCOCC2)c([N+](=O)[O-])c1 [Decoy387],Inactive (Decoy)
11,CCOc1ccc(S(=O)(=O)NC[C@@H](c2cccnc2)S(=O)(=O)c2ccc(OCC)cc2)cc1 [Decoy534],Inactive (Decoy)
12,CCOc1ccc([C@@H]2c3c(-c4cc(Cl)c(C)cc4O)n[nH]c3C(=O)N2CCCOC)cc1OCC [Decoy460],Inactive (Decoy)
13,O=C(O)CN(CC(=O)O)CC1=C[C@H]2C(=CC1=O)Oc1cc(O)c(CN(CC(=O)O)CC(=O)O)cc1[C@@]21OC(=O)c2ccccc21 [Decoy652],Inactive (Decoy)
14,CCOC(=O)c1ccc(N2C(=O)[C@@H](CC(=O)Nc3ccc(OCC)cc3)N(CCc3ccncc3)C2=S)cc1 [Decoy677],Inactive (Decoy)
15,COc1cc(/C=C/C(=O)O[C@H]2[C@H](O)[C@@H](COC(=O)/C=C/c3ccc(O)cc3)O[C@@]2(CO)O[C@H]2O[C@H](CO)[C@@H](O)[C@H](O)[C@H]2O)ccc1O [Decoy706],Inactive (Decoy)
16,COc1cc(/C=N/Nc2nc(SCC(=O)Nc3ccc(C)cc3C)n[nH]2)cc(OC)c1OC [Decoy584],Inactive (Decoy)
17,CCOC(=O)C(Sc1nc(N)c(NC(=O)c2ccc(Br)o2)c(=O)[nH]1)C(=O)OCC [Decoy673],Inactive (Decoy)
18,O=C(NCCCN1CCOCC1)C(C(=O)NCCCN1CCOCC1)c1ncc(C(F)(F)F)cc1Cl [Decoy377],Inactive (Decoy)
19,O=C(O)CCCNC(=O)C(NC(=O)CCSSCCNC(=O)CCCC[C@@H]1SC[C@@H]2NC(=O)N[C@@H]21)C(=O)NCCCC(=O)O [Decoy546],Inactive (Decoy)
20,CC(=O)O[C@H]([C@H](OC(C)=O)[C@H](OC(C)=O)C(=O)NC1CCCCCC1)[C@H](OC(C)=O)C(=O)NC1CCCCCC1 [Decoy425],Inactive (Decoy)
21,CCSc1ccccc1NC(=O)CSc1n[nH]c(N/N=C/c2cc([N+](=O)[O-])ccc2O)n1 [Decoy446],Inactive (Decoy)
22,C=CCn1c(CNc2ccc(Cl)cc2)nnc1S[C@@H](C)C(=O)N/N=C/c1ccc([N+](=O)[O-])s1 [Decoy574],Inactive (Decoy)
23,CC[C@@H]1Oc2ccc(S(=O)(=O)N3CCN(C(=O)CNC(=O)c4cccs4)CC3)cc2NC1=O [Decoy604],Inactive (Decoy)
24,C[C@@H]1O[C@@H](O[C@H]2[C@H](O)C[C@H](O[C@H]3[C@H](O)C[C@H](O[C@H]4CC[C@@]5(C)[C@H](CC[C@@H]6[C@@H]5CC[C@]5(C)[C@@H](C7=CC(=O)OC7)CC[C@]65O)C4)O[C@@H]3C)O[C@@H]2C)C[C@@H](O)[C@@H]1O [Decoy469],Inactive (Decoy)
25,CC(C)(CO[P@](=O)(O)O[P@](=O)(O)OC[C@H]1O[C@@H](n2cnc3c(N)ncnc32)[C@@H](O)[C@H]1O)[C@H](O)C(=O)NCCC(=O)NCCS [Decoy640],Inactive (Decoy)
